Earlier results in patent US9744192B2, “Methods of treating chronic rhinosinusitis” (priority 2015, dated 2017).
Like-named read-outs stand apart in the source and are kept apart here.

What was measured:
[1] = tested on: Bacillus shiga-kruse (aka: Shigella dysenteriae); conditions: 2-3% aqueous boric acid, agar culture
[2] = tested on: Candida albicans; conditions: for strains with complete growth inhibition: 1% aqueous boric acid
[3] = tested on: 17 bacteria and fungi (human pathogens)
[4] = tested on: Saccharomyces cerevisiae cells; conditions: living cells
[5] = tested on: 17 bacterial strains including Staphylococcus aureus, Enterococcus faecalis, E. coli, Klebsiella pneumonia and others; conditions: 2.5% boric acid
[6] = aqueous solution, pH=7.4

## OB(O)O [boric acid, Boric acid]
[1]
  agglutination: marked agglutination
[2]; fluconazole-resistant strains
  strains with complete growth inhibition: 24 of the 25
[2]; fluconazole-susceptible strains
  strains with complete growth inhibition: 45 of the 46
[2]; 1% boric acid
  sudden physical membrane damage: No sign of sudden physical membrane damage
[2]; 24 hour exposure to 1% boric acid
  membrane integrity: decreased only slightly
In vivo
  tissue irritation or other adverse events: little or no evidence
topical
  absorption across uninjured skin or vaginal epithelium: not significantly absorbed
[3]; boric acid 1.8-2%, urine samples, up to 24 hours at 24° C.
  integrity of initial bacterial or fungal counts: maintained for all human pathogens studied
[3]; preserved samples diluted out
  reversibility of the bacteriostatic effect after dilution into nutrient culture media: rapid and complete reversibility
[4]
  effect on cell morphology: alter the morphology
[5]
  bacterial strains with complete growth inhibition: 17 of 17
[6]
  borate B(OH)4− share of equilibrium: 1.6%
  free boric acid B(OH)3 share of equilibrium: 98.4%
